# Experimental data as given in patent publication US6124308A, “Optically active phenyl pyrimidine derivatives as analgesic agent” (priority 1995, dated 2000).
# Where two headings read alike, the source gives them in different places.
# Columns and labels:
# [1] = Half-life in male rats; format: in vivo, rat; settings: rat, in vivo, read-out: half-life (t1/2) (converted)
# [2] = molecular target: T1, rat liver DHFR (Rattus norvegicus, UniProt Q920D2); assay: Activity against dihydrofolate reductase (DHFR), spectrophotometric assay; format: biochemical
# T1 construct: rat liver DHFR; from tissue; host or cells: rat liver
# T1 sequence (Q920D2 1-187): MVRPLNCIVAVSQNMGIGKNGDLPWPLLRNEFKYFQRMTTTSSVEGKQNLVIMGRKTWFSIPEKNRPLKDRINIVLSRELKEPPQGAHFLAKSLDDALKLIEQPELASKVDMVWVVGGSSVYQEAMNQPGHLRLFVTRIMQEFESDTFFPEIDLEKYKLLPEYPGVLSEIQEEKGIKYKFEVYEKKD
# [3] = tested on: hind-limb extension (maximal electroshock seizure); assay: Maximal electroshock test, rats, i.p., duration of action; format: in vivo, rat; settings: for ED50: Rattus norvegicus, ip, read-out: ED50 (95% limits)
# [4] = tested on: striatal dopamine in MPTP injected C57B1/6 mice; assay: MPTP induced neurotoxic model, striatal dopamine levels; format: in vivo, mouse
# Protocol: Six-week old male C57B1/6 mice (Japan SLC Co., Hamamatu) were housed ten per case in a temperature-controlled room under a 12-hours light/12-hours dark cycle with free access to food and water.
# Mice received i.p. injections of the R(-) enantiomer and the S(+) enantiomer (30 mg/kg) in olive oil starting 12 hours before MPTP injection and every 12 hours for the next 5-injections. Control mice received olive oil only.
# Mice receive s.c. injection of MPTP-HCl (40 mg of free base per kg; Research Biochemicals) in saline. Control mice received saline only.
# HPLC with electrochemical detection was used to measure striatal levels of dopamine (J.C. Garcia': Journal of Chromatography B. 656 (1994) 77-80).
# Seven days after the MPTP injection, mice ([…]) were killed and striata were dissected out, immediately frozen, and stored at -80° C. until analysis. On the day of the assay, tissue samples were sonicated in 10 vol(wt/vol) of 0.1M perchloric acid /1.9 mM sodium hydrogen sulfite containing 1.6μg/ml 3,4-dihydroxybenzylamine hydrobromide(Sigma) as an internal standard. After centrifugation (2,800× g for 10 min at room temperature) and filtration (0.5 μm; Millipore membrane filter), 10 μl of supernatant was injected onto an Inertsil ODS3 column (4.6×250 mm; GL Science, Tokyo). The mobile phase consisted of 88% 115 mM NaH2 PO4 /0.178 mM Na2 EDTA /0.92 mM 1-octanesulfonic acid (pH=2.6) solution and 12% ethanol. F low rate was 1.0 ml/min. Peaks were detected by a Shimazu electrochemical detector LECD-6A(700 mV).
# [5] = tested on: veratrine-evoked glutamate release from rat brain slices; assay: Inhibition of veratrine-evoked glutamate release; format: cell-based; settings: at 10 μM
# [6] = tested on: whole-cell sodium currents in cultured rat hippocampal neurones; assay: Whole-cell sodium currents in cultured embryonic rat hippocampal neurones, patch-clamp; format: cell-based
# Excerpt: (b) Cultured embryonic rat hippocampal neurones
# Sodium currents were elicited by the application of 20 msec dipolarisng pulses, thereby lowering membrane potential to -10 mV from a holding potential of -60 mV.
# [7] = tested on: PGE2-induced acute hyperalgesia; assay: Effects on the development of PGE2-induced acute hyperalgesia (paw pressure); format: in vivo, rat; settings: p.o., 1 h before PGE2 (100 ng), n=5
# Protocol: Effects on the development of PGE2 -induced acute hyperalgesia
# Reaction times to paw pressure were measured 3 h after PGE2 injection. Ataxia was scored at the same time by observation of the rats placed in an arena.
# [8] = tested on: established PGE2-induced acute hyperalgesia; assay: Effects on established PGE2-induced acute hyperalgesia (paw pressure); format: in vivo; settings: Rattus norvegicus, po, 2 h after PGE2 (100 ng); read-out: analgesia ED50 and 95% confidence limits
# Protocol: Effects on established PGE2 -induced acute hyperalgesia
# The R(-)enantiomer was given orally 2 h after subplantar injection of PGE2 (100 ng) when the hyperalgesia was established. Reaction time to paw pressure was measured 3 h after the PGE2 administration.
# [9] = tested on: maximal electroshock seizure; assay: Maximal electroshock test, mice, different routes of administration; format: in vivo, mouse; settings: for ED50: Mus musculus, mice, 1 hour, read-out: ED50 (95% limits)
# [10] = molecular target: T2, rat type IIA sodium channels (Rattus norvegicus, UniProt P04775); assay: Recombinant rat type IIA sodium channels in chinese hamster ovary cells, whole-cell recording; format: cell-based; settings: for IC50: read-out: IC50 (inhibition of Na+ currents)
# T2 construct: no beta subunit mentioned
# T2 sequence (P04775 whole entry): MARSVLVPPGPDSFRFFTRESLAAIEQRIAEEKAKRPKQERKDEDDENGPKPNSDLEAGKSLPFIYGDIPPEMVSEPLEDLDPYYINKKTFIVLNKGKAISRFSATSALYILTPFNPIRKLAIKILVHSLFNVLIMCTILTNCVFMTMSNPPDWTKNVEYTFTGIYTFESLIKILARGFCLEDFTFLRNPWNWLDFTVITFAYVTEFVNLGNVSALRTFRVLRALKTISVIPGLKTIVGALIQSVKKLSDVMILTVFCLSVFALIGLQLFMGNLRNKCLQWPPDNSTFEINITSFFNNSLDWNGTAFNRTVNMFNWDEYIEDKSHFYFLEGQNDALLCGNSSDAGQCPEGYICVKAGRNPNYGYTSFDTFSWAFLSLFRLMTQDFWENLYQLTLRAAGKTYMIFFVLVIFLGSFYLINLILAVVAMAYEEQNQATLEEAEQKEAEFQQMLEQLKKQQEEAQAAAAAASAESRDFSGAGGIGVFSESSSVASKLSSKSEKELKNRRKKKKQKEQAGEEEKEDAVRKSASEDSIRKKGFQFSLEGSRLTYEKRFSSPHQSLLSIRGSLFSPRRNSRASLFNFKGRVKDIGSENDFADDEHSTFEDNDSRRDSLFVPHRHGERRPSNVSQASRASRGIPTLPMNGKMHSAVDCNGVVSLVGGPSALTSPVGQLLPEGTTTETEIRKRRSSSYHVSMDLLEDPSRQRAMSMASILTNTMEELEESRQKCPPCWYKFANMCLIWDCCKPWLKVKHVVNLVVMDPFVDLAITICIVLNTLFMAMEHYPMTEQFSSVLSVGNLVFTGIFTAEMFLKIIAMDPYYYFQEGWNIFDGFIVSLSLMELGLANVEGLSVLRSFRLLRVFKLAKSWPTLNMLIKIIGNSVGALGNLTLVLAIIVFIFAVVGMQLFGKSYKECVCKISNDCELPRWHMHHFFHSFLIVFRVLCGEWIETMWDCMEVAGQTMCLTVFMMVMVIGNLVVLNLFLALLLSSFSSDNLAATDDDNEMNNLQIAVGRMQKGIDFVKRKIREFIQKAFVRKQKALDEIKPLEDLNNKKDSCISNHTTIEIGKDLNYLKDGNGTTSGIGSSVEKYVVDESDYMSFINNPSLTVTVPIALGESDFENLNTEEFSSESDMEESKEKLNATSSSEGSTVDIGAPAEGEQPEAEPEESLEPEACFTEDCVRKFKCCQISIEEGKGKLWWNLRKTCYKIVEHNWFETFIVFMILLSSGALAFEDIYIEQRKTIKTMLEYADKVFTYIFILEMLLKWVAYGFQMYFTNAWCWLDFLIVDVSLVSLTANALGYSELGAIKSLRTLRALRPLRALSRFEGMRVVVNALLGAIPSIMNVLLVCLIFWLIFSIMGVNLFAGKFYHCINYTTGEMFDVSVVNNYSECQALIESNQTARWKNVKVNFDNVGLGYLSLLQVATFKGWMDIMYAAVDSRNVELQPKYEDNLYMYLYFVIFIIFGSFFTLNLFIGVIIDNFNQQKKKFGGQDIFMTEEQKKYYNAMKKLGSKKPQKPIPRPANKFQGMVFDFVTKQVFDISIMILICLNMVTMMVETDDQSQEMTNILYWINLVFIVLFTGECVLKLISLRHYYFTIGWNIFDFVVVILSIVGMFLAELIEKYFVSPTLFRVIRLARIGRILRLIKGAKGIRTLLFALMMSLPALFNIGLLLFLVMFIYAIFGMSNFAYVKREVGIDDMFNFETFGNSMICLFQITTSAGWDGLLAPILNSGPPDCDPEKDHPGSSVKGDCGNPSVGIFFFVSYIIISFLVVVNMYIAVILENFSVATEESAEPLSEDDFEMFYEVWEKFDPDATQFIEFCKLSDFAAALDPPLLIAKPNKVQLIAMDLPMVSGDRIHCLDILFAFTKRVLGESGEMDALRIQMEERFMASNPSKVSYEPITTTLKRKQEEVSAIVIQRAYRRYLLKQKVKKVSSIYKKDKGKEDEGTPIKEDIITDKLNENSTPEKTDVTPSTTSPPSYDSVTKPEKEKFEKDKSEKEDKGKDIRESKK
# Excerpt: The IC50 's at two different holding potentials (Vh) were as follows: […]
# [11] = tested on: native channels in cultured rat striatal neurones (Na+ currents); assay: Native sodium channels in cultured rat striatal neurones, whole-cell recording; format: cell-based
# Excerpt: The action of the R(-)enantiomer on native channels in cultured rat striatal neurones was studied using whole-cell recording techniques.
# [12] = tested on: electrical activity of the external oblique muscle (egg albumin sensitised rats); assay: Irritable bowel syndrome model: colorectal distension in egg albumin sensitised rats; format: in vivo, rat; settings: 10 mg/kg p.o., 60 minutes before pressure response curve
# Protocol: Male Listar hooded rats weight range 100-150 g were used.
# The rats were sensitised by dosing ip (1 ml per rat) with a solution containing egg albumin, (10 ug/ml) pertusssis vaccine (1 mg/ml) and aluminium hydroxide (10 mg/ml). Control animals received saline.
# Seven days later the rats were anaesthetised using isofurane and the external oblique muscle exposed. Two nichrome wires were implanted into the muscles and the wires exteriorised to the back of the neck, the skin was sutured and the animals were allowed to recover.
# Six days later the animals were fasted overnight. On the following day the animals were anaesthetised and the colorectum washed out using saline. A 4 cm long latex balloon tied to a portex cannula was connected to an inflation device, and the nichrome electrodes at the back of the neck were connected to head stage.
# The electrical activity of the external oblique muscle was recorded by a data capture system (`spike2`) which calculated the number of electrical spikes. Sequential pressure response curves (10-100 mmHg) in sensitised and the control animals were constructed. The balloon was inflated for 1 min at each pressure, followed by a rest period of 5 min.
# The mean number of spikes at each pressure was calculated for the control animals, sensitised animals and sensitised animals treated with the R(-) enantiomer. […]
smiles,measurement,setting,value
"Nc1nc(N)c(-c2cccc(Cl)c2Cl)c(CF)n1 [R(-)enantiomer, R(-)-2,4-diamino-5-(2,3-dichlorophenyl)-6-fluoromethyl pyrimidine]",half-life,[1],324 min
same,inhibition at 100 µM,[2],25%
same,ED50,"[3]; 8 h, i.p., rats, 8 hours",5.9 mg/kg
same,ED50,"[3]; 24 h, i.p., rats, 24 hours",12.9 mg/kg
same,times more active than its S(=)enantiomer,"[3]; anticonvulsant, rats, i.p.",15-20 times
same,times more active than lamotrigine,"[3]; anticonvulsant, rats, i.p.",2-3 times
same,ED50 at 2 hrs (isethionate salt versus base),"[3]; i.p., 2 hrs, calculated as the base, p<0.05, listed as R(-) enantiomer base, 120 min",2.5 mg/kg
same,ED50 (95% limits),"[3]; i.p., rats, 0.5 hours, 30 min",1.3 (0.9-1.9) mg/kg
same,ED50 (95% limits),"[3]; i.p., rats, 1 hour, 60 min",1.0 (0.7-1.5) mg/kg
same,ED50 (95% limits),"[3]; i.p., rats, 2 hours, 120 min",1.2 (0.8-1.7) mg/kg
same,ED50 (95% limits),"[3]; i.p., rats, 4 hours, 240 min",2.3 (1.6-3.4) mg/kg
same,duration of action,[3]; maximal electroshock,long duration of action
same,% protection,"[4]; 30 mg/kg i.p. 6 times, MPTP 40 mg/kg s.c.",81.0%
same,Dopamine content in the striatum,"[4]; 30 mg/kg i.p. 6 times, MPTP 40 mg/kg s.c., day 7",12.45 ± 1.18 μg/g wet tissue
same,% mortality,"[4]; 30 mg/kg i.p., day -1 to 7",0%
same,inhibition of veratrine-evoked glutamate release,[5],64%
same,IC50,"[6]; 20 msec pulses to -10 mV from holding potential -60 mV, read-out: IC50 (reduction of peak sodium current)",4 µM
same,reduction of peak sodium current,[6]; holding potential -60 mV,concentration-dependent reduction of peak sodium current
same,Analgesia ED50 (95% limits),[7],2.5 (2.2-2.9) mg/kg
same,ED50,[8],3.4 mg/kg
same,ED50,"[9]; ip, i.p.",1.3 mg/kg
same,ED50,"[9]; po, p.o.",1.2 mg/kg
same,ED50,"[9]; sc, s.c.",0.96 mg/kg
same,times more potent than lamotrigine in the maximal electroshock test,[9]; in rats and mice,2-3 times
same,activity by the various routes tested,"[9]; maximal electroshock, rats and mice",approximately equiactive by the various routes tested
same,inhibition of Na+ currents,[10]; R(-)enantiomer 1-500 μM,inhibition of Na^+ currents in a concentration-dependent and voltage-dependent manner
same,IC50,[10]; Vh = -60 mV,18 µM
same,IC50,[10]; Vh = -90 mV,160 µM
same,inhibition of Na+ currents,[11],concentration- and voltage-dependent inhibition of Na^+ currents
same,inhibition by 10-30 μM on hyperpolarising the cells,"[11]; 10-30 μM, Vh = -120 mV",virtually eliminated
same,IC50,"[11]; Rattus norvegicus, holding potential (Vh) of 60 mV, read-out: IC50 (inhibition of Na+ currents)",~8 µM
same,potency at Vh = -90 mV compared with IC50 at 60 mV,[11]; Vh = -90 mV,much lower potency
same,reversal of the changes induced by egg albumin,[12],complete reversal
